Experimental data as given in US20090204336A1, “PDZ-Domain Modulators” (Forschungsverbund Berlin e. V., priority 2005, published 2009).
“Also recorded” adds a separate entry of the source.

Key:
PDZ-domain of AF6 = molecular target: T1, PDZ-domain of AF6 (Homo sapiens, UniProt P55196); test: Kd determination by 15N-HSQC NMR titration; format: binding; settings: macroscopic (apparent) Kd ± statistical standard deviation of curve adaptation; 50 μM 15N protein, pH 6.5, 300 K
T1 construct: The ubiquitarily 15N marked PDZ-domains of the proteins AF6; made in house
T1 sequence (P55196 1007-1093 limits assumed): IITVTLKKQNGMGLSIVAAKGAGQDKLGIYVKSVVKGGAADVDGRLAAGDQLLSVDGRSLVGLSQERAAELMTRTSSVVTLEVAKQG
Protocol: (§1) The ubiquitarily 15N marked PDZ-domains of the proteins AF6 [Boisguerin, P. et al., Chem. Biol. 11:449-459 (2004)] and Syntrophin [Schultz, J. et al., Nat Struct Biol., 5(1):19-24 (1998)] were prepared as described in the publications. For the NMR assay 50 μM 15N marked protein are mixed in a buffer of 20 mM Na phosphate pH 6.5, 50 mM NaCl and 10% d6-DMSO with a 8 to 10-fold molar excess of test ligand and a 15N-HSQC NMR spectrum is recorded at a temperature of 300 K on a Bruker DRX 600 MHz NMR spectrometer. Secondly, an identical comparison spectrum of protein in absence of test ligand is recorded. The NMR spectra are processed with the aid of the software XWIN-NMR and compared with each other with the aid of the software Sparky. […] Exemplarily is shown such a comparison of spectra for the PDZ-domain of AF6 in FIG. 7A and for the PDZ-domain of Syntrophin in FIG. 7B.
(§2) For the determination of equilibrium dissociation constants (in short: Kd values), a test ligand is added step-wise in increasing concentrations to 50 μM protein solution, and for each concentration step a 15N-HSQC NMR spectrum is recorded under the same conditions as described above. The average chemical shift of a resonance, d, is calculated according to the following equation from the NMR raw data: […]
(§3) wherein ΔH is the shift in ppm units along the 1H resonance axis, and ΔN is the shift in ppm units along the 15N resonance axis. The average shift, d, is drawn as a function of the concentration of the test ligand, and a binding curve results, to which is adapted the following mathematical equation:
(§4) wherein Lo is the total concentration of ligands, Po is the total concentration of protein and Kd is the Kd value. This equation describes the law of mass action of a reaction “protein+ligand=complex”.
(§5) With the aid of a software such as e.g. “Origin 5.0”, the adaptation is optimized in a non-linear manner, thereby providing for each investigated resonance a microscopic Kd value. From the mean value of all relevant microscopic Kd values, a macroscopic Kd value is calculated. In Table 2, the macroscopic Kd values including the statistical standard deviation for the binding of some test ligands to the PDZ-domains of AF6 and of Syntrophin are shown.
(§6) The number behind the ± symbol indicates the statistical standard deviation of a mathematical curve adaptation to the chemical binding equation “protein+ligand=complex”.

PDZ-domain of Syntrophin = molecular target: T2, PDZ-domain of Syntrophin (Mus musculus, UniProt Q61234); test: Kd determination by 15N-HSQC NMR titration; format: binding; settings: macroscopic (apparent) Kd ± statistical standard deviation of curve adaptation; 50 μM 15N protein, pH 6.5, 300 K
T2 construct: made in house
T2 sequence (Q61234 81-164 limits assumed): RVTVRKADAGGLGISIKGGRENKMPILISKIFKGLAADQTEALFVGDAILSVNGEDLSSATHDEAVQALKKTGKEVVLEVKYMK
Protocol: as §1, §2, §3, §4, §5, §6

[1] = molecular target: T3, PDZ-domain of the protein AF6 (Homo sapiens, UniProt P55196); test: 15N-HSQC NMR binding assay (chemical shift comparison with and without test ligand); settings: for binding to the PDZ-domain of the protein AF6 (binding / non-binding): 8 to 10-fold molar excess of test ligand, 50 μM protein; for binding of compound with singly bound R3 compared with the doubly bound equivalent: singly vs doubly bound residue R3; for binding site occupation from backbone amide chemical shifts, compared with compound 1: 8 to 10-fold ligand excess, FIG. 8
T3 construct: The ubiquitarily 15N marked PDZ-domains of the proteins AF6; made in house
T3 sequence (P55196 1007-1093 limits assumed): T1 sequence (P55196 1007-1093 limits assumed)
Description: The chemical shifts are split up into the 2 categories “large (bold italics)” and “small (normal letters)”. From the shown amino acid residues, the binding site of a compound on the protein can be determined by color-highlighting the backbone amide atoms of this amino acid residues in the 3D protein structure of Table 1 and creating the largest common cut set of all these atoms on the protein surface.

binding to the PDZ-domain of the protein AF6 (binding / non-binding) [1]	SMILES	further results
particularly strong activity	O=C1NC(=S)SC1Cc1ccc(Br)cc1 (centres unmarked) [Compound 2]	
show a binding	O=C1NC(=S)SC1Cc1ccoc1 (centres unmarked) [Compound 4]	
show a binding	O=C1NC(=S)SC1Cc1ccsc1 (centres unmarked) [Compound 5]	
particularly strong activity	CC(c1ccc(C(F)(F)F)cc1)C1SC(=S)NC1=O (centres unmarked) [Compound 6]	
particularly strong activity	O=C1NC(=O)C(Cc2ccc(C(F)(F)F)cc2)S1 (centres unmarked) [Compound 7]	Kd (PDZ-domain of AF6): 280 ± 22 µM; Kd (PDZ-domain of Syntrophin): 330 ± 17 µM
non-binding	CN1C(=O)C(=Cc2ccc(C(F)(F)F)cc2)SC1=S [Compound 31]	

Continued, compound first:

SMILES	binding to the PDZ-domain of the protein AF6 (binding / non-binding) [1]	further results
O=C1NC(=S)SC1Cc1ccc(C(F)(F)F)cc1 (centres unmarked) [Compound 1]	show a binding; also recorded: particularly strong activity	Kd (PDZ-domain of AF6): 101 µM; Kd (PDZ-domain of Syntrophin): 239 ± 12 µM; binding of compound with singly bound R3 compared with the doubly bound equivalent [1]: stronger binding
O=C1NC(=S)SC1Cc1ccccc1 (centres unmarked) [Compound 3]	show a binding	
O=C1NC(=S)SC1=Cc1ccc(C(F)(F)F)cc1 [Compound 9]	binding; also recorded: particularly strong activity	
O=C1NC(=S)SC1=Cc1ccsc1 [Compound 13]	binding	
O=C1NC(=S)SC1=Cc1cccc(C(F)(F)F)c1 [Compound 14]	binding	
CC(C)C=C1SC(=O)NC1=O [Compound 21]	show a binding	binding site occupation from backbone amide chemical shifts, compared with compound 1 [1]: missing occupation of the partial binding site of the trifluoromethylphenyl residue
O=C1NC(=S)SC1Cc1cccc(C(F)(F)F)c1 (centres unmarked) [Compound 26]		binding of compound with singly bound R3 compared with the doubly bound equivalent [1]: weaker binding
O=C1NC(=S)SC1=Cc1c[nH]c2ccccc12 [Compound 29]	non-binding; also recorded: do not show any binding	
O=C1NC(=S)SC1=Cc1ccc(-c2ccccc2)cc1 [Compound 30]	non-binding; also recorded: do not show any binding	
CN1C(=O)C(=Cc2cccc(C(F)(F)F)c2)SC1=S [Compound 32]	non-binding	
NC1=NC(=O)C(=Cc2ccsc2)S1 [Compound 38]	non-binding	
CN(C)CCN=C1NC(=O)C(=Cc2ccc(C(F)(F)F)cc2)S1 [Compound 39]	non-binding	
O=C1NC(=NCCCc2ccccc2)SC1=Cc1ccc(C(F)(F)F)cc1 [Compound 40]	non-binding	
O=C(O)c1cc2cc(Br)ccc2c(Br)c1O [Compound 41]		Kd (PDZ-domain of AF6): 419 ± 30 µM
O=C(O)c1cccc([N+](=O)[O-])c1O [Compound 46]		binding site occupation from backbone amide chemical shifts, compared with compound 1 [1]: does not or only insufficiently occupy the binding sites L25 to V28 and S75 to T91
O=c1[nH]c2c(Cl)c(Cl)c(Cl)cc2o1 [II]		Kd (PDZ-domain of AF6): 480 ± 33 µM; Kd (PDZ-domain of Syntrophin): 398 ± 32 µM
